Assay results taken from patent US5672715A, “Herbicidal substituted 3-aryl-pyrazoles” (Monsanto Company, priority 1995, dated 1997).
Where “and” joins values, the source holds several entries; their conditions need not be identical. Equal entries are not always repeated.

Assays:
Format in all cases: in vivo
Birdseye Speedwell [1] = test: post-emergence herbicide test; conditions: 0.25 lb/A
Text: (§1) Topsoil was placed in aluminum pans having holes in the bottom and compacted to a depth of 1.3 to 1.6 cm from the top of the pan. A predetermined number of seeds of each of several dicotyledonous and monocotyledonous annual plant species and/or vegetative propagules for the perennial plant species were placed on the soil and pressed into the soil surface. The seeds and/or vegetative propagules were covered with soil and leveled. The pans were then placed on a bench in the greenhouse and watered either from overheard irrigation or by subirrigation as needed. After the plants reach the desired age (two to three weeks), each pan, is removed individually to a spraying chamber and sprayed by means of an atomizer, operating at a spray pressure of 170.3 kPa […] at the application rates noted. In the spray solution was an amount of an emulsifying agent mixture to give a spray solution or suspension which contains about 0.4% by volume of the emulsifier. The spray solution or suspension contained a sufficient amount of the candidate chemical in order to give application rates of the active ingredient corresponding to those shown in Tables 4 and 5, while applying a total amount of solution or suspension equivalent to 1870 L/Ha (200 gallons/acre). […] The post-emergent herbicidal activity shown in these tables is the percent inhibition of each plant species. Testing with warm season and cool season plants is shown in tables 4a-4d and […], respectively.

Velvetleaf [2] = test: post-emergence herbicide test; conditions: 0.25 lb/A; for inhibition at 280.212 g/ha: Abutilon theophrasti, post-emergence, read-out: % plant inhibition
Text: as §1

Corn [3] = test: post-emergence herbicide test; conditions: 0.25 lb/A; for inhibition at 280.212 g/ha: Zea mays, post-emergence, read-out: % plant inhibition
Text: as §1

Seedling Johnsongrass [4] = test: post-emergence herbicide test; conditions: 0.25 lb/A; for inhibition at 280.212 g/ha: Sorghum halepense, post-emergence, read-out: % plant inhibition
Text: as §1

Bedstraw Catchweed [5] = test: post-emergence herbicide test; conditions: 0.25 lb/A
Text: as §1

Rape [6] = test: pre-emergence herbicide test; conditions: 0.25 lb/A; for inhibition at 280.212 g/ha: pre-emergence, read-out: % plant inhibition
Procedure: (§2) Topsoil was placed in an aluminum pan and compacted to a depth of 1.3 to 1.6 cm from the top of the pan. On the top of the soil was placed a predetermined number of seeds of each of several monocotyledonous and dicotyledonous annual plant species and/or vegetative propagules of various perennial plant species. The pan was then level filled with a cover layer of topsoil to which was added a known amount of active ingredient either prior to or after application of the cover layer. The active ingredient was dissolved or suspended in an organic solvent, e.g., acetone, or water as carrier for application to the cover layer. The pans were moved to a greenhouse bench where they were thereafter watered from below as needed to give adequate moisture for germination and growth. In some cases, an initial overhead irrigation of 1/4 inch of water was applied immediately after treatment.
(§3) Approximately 14 days after seeding and treating, the pans were observed and the results (% inhibition) were recorded.
(§4) The tables below summarize the results of the pre-emergence herbicidal activity tests of compounds of this invention tested with warm season plants (Tables 2a-2d) and cool season plants (Tables 3a and 3b). The herbicidal rating shown in these tables is the percent inhibition of each plant species. The plant species usually regarded as weeds are identified in the tables by single letter headings and crop species identified by two letter headings both headings being above the columns in accordance with the following legend: […]

Green Foxtail [7] = test: pre-emergence herbicide test; conditions: Setaria viridis, pre-emergence; 0.25 lb/A; read-out: % plant inhibition
Procedure: as §2, §3, §4

Morning Glory [8] = test: pre-emergence herbicide test; conditions: 0.25 lb/A
Procedure: as §2, §3, §4

Blackgrass [9] = test: pre-emergence herbicide test; conditions: Alopecurus myosuroides, pre-emergence, 0.25 lb/A; read-out: % plant inhibition
Procedure: as §2, §3, §4

Birdseye Speedwell [10] = test: pre-emergence herbicide test; conditions: pre-emergence, 0.25 lb/A; read-out: % plant inhibition
Procedure: as §2, §3, §4

Common Chickweed [11] = test: pre-emergence herbicide test; conditions: pre-emergence, 0.25 lb/A; read-out: % plant inhibition
Procedure: as §2, §3, §4

Velvetleaf [12] = test: pre-emergence herbicide test; conditions: 0.25 lb/A
Procedure: as §2, §3, §4

Downy Brome [13] = test: pre-emergence herbicide test; conditions: 0.25 lb/A; for inhibition at 280.212 g/ha: Bromus tectorum, pre-emergence, read-out: % plant inhibition
Procedure: as §2, §3, §4

Barnyardgrass [14] = test: pre-emergence herbicide test; conditions: Echinochloa crus-galli, pre-emergence, 0.25 lb/A; read-out: % plant inhibition
Procedure: as §2, §3, §4

Wheat [15] = test: pre-emergence herbicide test; conditions: 0.25 lb/A
Procedure: as §2, §3, §4

Cocklebur [16] = test: pre-emergence herbicide test; conditions: 0.25 lb/A
Procedure: as §2, §3, §4

Wild Oats [17] = test: pre-emergence herbicide test; conditions: 0.25 lb/A; for inhibition at 280.212 g/ha: Avena fatua, pre-emergence, read-out: % plant inhibition
Procedure: as §2, §3, §4

Corn [18] = test: pre-emergence herbicide test; conditions: 0.25 lb/A
Procedure: as §2, §3, §4

Seedling Johnsongrass [19] = test: pre-emergence herbicide test; conditions: Sorghum halepense, pre-emergence, 0.25 lb/A; read-out: % plant inhibition
Procedure: as §2, §3, §4

Bedstraw Catchweed [20] = test: pre-emergence herbicide test; conditions: 0.25 lb/A; for inhibition at 280.212 g/ha: Galium aparine, pre-emergence, read-out: % plant inhibition
Procedure: as §2, §3, §4

Giant Foxtail [21] = test: pre-emergence herbicide test; conditions: Setaria faberi, pre-emergence, 0.25 lb/A; read-out: % plant inhibition
Procedure: as §2, §3, §4

Rape [22] = test: post-emergence herbicide test; conditions: post-emergence, 0.25 lb/A; read-out: % plant inhibition
Text: as §1

Green Foxtail [23] = test: post-emergence herbicide test; conditions: Setaria viridis, post-emergence, 0.25 lb/A; read-out: % plant inhibition
Text: as §1

Morning Glory [24] = test: post-emergence herbicide test; conditions: Ipomoea, post-emergence, 0.25 lb/A; read-out: % plant inhibition
Text: as §1

Blackgrass [25] = test: post-emergence herbicide test; conditions: Alopecurus myosuroides, post-emergence, 0.25 lb/A; read-out: % plant inhibition
Text: as §1

Common Chickweed [26] = test: post-emergence herbicide test; conditions: post-emergence, 0.25 lb/A; read-out: % plant inhibition
Text: as §1

Downy Brome [27] = test: post-emergence herbicide test; conditions: Bromus tectorum, post-emergence, 0.25 lb/A; read-out: % plant inhibition
Text: as §1

Barnyardgrass [28] = test: post-emergence herbicide test; conditions: Echinochloa crus-galli, post-emergence, 0.25 lb/A; read-out: % plant inhibition
Text: as §1

Wheat [29] = test: post-emergence herbicide test; conditions: Triticum aestivum, post-emergence, 0.25 lb/A; read-out: % plant inhibition
Text: as §1

Cocklebur [30] = test: post-emergence herbicide test; conditions: Xanthium strumarium, post-emergence, 0.25 lb/A; read-out: % plant inhibition
Text: as §1

Wild Oats [31] = test: post-emergence herbicide test; conditions: Avena fatua, post-emergence, 0.25 lb/A; read-out: % plant inhibition
Text: as §1

Soybean [32] = test: post-emergence herbicide test; conditions: Glycine max, post-emergence, 0.25 lb/A; read-out: % plant inhibition
Text: as §1

Giant Foxtail [33] = test: post-emergence herbicide test; conditions: Setaria faberi, post-emergence, 0.25 lb/A; read-out: % plant inhibition
Text: as §1

Soybean [34] = test: pre-emergence herbicide test; conditions: 0.25 lb/A
Procedure: as §2, §3, §4

With `Cc1c(-c2cc(C(=O)OC(C)C)c(Cl)cc2F)nn(C)c1C(F)(F)F` [Compound 8, 2-Chloro-5-[1,4-dimethyl-5-(trifluoromethyl)-1H-pyrazol-3-yl]-4-fluorobenzoic acid, 1-methylethyl ester] the “% plant inhibition” value (Birdseye Speedwell [1]) was 55%, the “% plant inhibition” value (Velvetleaf [2]) was 99% and the inhibition at 280.212 g/ha (Velvetleaf [2]) was 90%. The “% plant inhibition” value (Corn [3]) was 20%, the inhibition at 280.212 g/ha (Corn [3]) was 15% and the “% plant inhibition” value (Seedling Johnsongrass [4]) was 90%. The inhibition at 280.212 g/ha (Seedling Johnsongrass [4]) was 70%, the “% plant inhibition” value (Bedstraw Catchweed [5]) was 60% and 95% and the “% plant inhibition” value (Rape [6]) was 100% and 90%. For the same compound, the inhibition at 280.212 g/ha (Rape [6]) was 98%, the inhibition at 280.212 g/ha (Green Foxtail [7]) was 100% and the “% plant inhibition” value (Morning Glory [8]) was 100%. For the same compound, the inhibition at 280.212 g/ha (Blackgrass [9]) was 100%, the inhibition at 280.212 g/ha (Birdseye Speedwell [10]) was 100% and the inhibition at 280.212 g/ha (Common Chickweed [11]) was 100%. The “% plant inhibition” value (Velvetleaf [12]) was 100%, the inhibition at 280.212 g/ha (Velvetleaf [12]; Abutilon theophrasti, pre-emergence, read-out: % plant inhibition) was 98% and the “% plant inhibition” value (Downy Brome [13]) was 99%. For the same compound, the inhibition at 280.212 g/ha (Downy Brome [13]) was 100%, the inhibition at 280.212 g/ha (Barnyardgrass [14]) was 100% and the “% plant inhibition” value (Wheat [15]) was 0%. The “% plant inhibition” value (Cocklebur [16]) was 80% and 75% and 99% and 85%, the “% plant inhibition” value (Wild Oats [17]) was 100% and the inhibition at 280.212 g/ha (Wild Oats [17]) was 95%. The “% plant inhibition” value (Corn [18]) was 85% and 90% and 70% and 100%, the inhibition at 280.212 g/ha (Seedling Johnsongrass [19]) was 100% and the “% plant inhibition” value (Bedstraw Catchweed [20]) was 100%. For the same compound, the inhibition at 280.212 g/ha (Bedstraw Catchweed [20]) was 90% and the inhibition at 280.212 g/ha (Giant Foxtail [21]) was 100%.
`Cc1c(-c2cc(C(=O)O)c(Cl)cc2F)nn(C)c1C(F)(F)F` [Compound 2, 2-Chloro-5-[1,4-dimethyl-5-(trifluoromethyl)-1H-pyrazol-3-yl]-4-fluorobenzoic acid] gave an inhibition at 280.212 g/ha (Rape [22]) of 0%, an inhibition at 280.212 g/ha (Green Foxtail [23]) of 15% and an inhibition at 280.212 g/ha (Morning Glory [24]) of 45%. For the same compound, the inhibition at 280.212 g/ha (Blackgrass [25]) was 10%, the inhibition at 280.212 g/ha (Birdseye Speedwell [1]; post-emergence, read-out: % plant inhibition) was 80% and the inhibition at 280.212 g/ha (Common Chickweed [26]) was 70%. It also gave an inhibition at 280.212 g/ha (Velvetleaf [2]) of 85%, an inhibition at 280.212 g/ha (Downy Brome [27]) of 0% and an inhibition at 280.212 g/ha (Barnyardgrass [28]) of 15%. The inhibition at 280.212 g/ha (Wheat [29]) was 0%, the inhibition at 280.212 g/ha (Cocklebur [30]) was 70% and the inhibition at 280.212 g/ha (Wild Oats [31]) was 0%. For the same compound, the inhibition at 280.212 g/ha (Corn [3]) was 3%, the inhibition at 280.212 g/ha (Seedling Johnsongrass [4]) was 20% and the inhibition at 280.212 g/ha (Soybean [32]) was 20%. It also gave an inhibition at 280.212 g/ha (Bedstraw Catchweed [5]; Galium aparine, post-emergence, read-out: % plant inhibition) of 50%, an inhibition at 280.212 g/ha (Giant Foxtail [33]) of 0% and an inhibition at 280.212 g/ha (Rape [6]) of 20%. The inhibition at 280.212 g/ha (Green Foxtail [7]) was 25%, the “% plant inhibition” value (Morning Glory [8]) was 30% and the inhibition at 280.212 g/ha (Morning Glory [8]; Ipomoea, pre-emergence, read-out: % plant inhibition) was 35%. For the same compound, the inhibition at 280.212 g/ha (Blackgrass [9]) was 15%, the inhibition at 280.212 g/ha (Birdseye Speedwell [10]) was 55% and the inhibition at 280.212 g/ha (Common Chickweed [11]) was 60%. The inhibition at 280.212 g/ha (Downy Brome [13]) was 25%, the inhibition at 280.212 g/ha (Barnyardgrass [14]) was 0% and the inhibition at 280.212 g/ha (Wheat [15]; Triticum aestivum, pre-emergence, read-out: % plant inhibition) was 7%. The inhibition at 280.212 g/ha (Wild Oats [17]) was 15%, the inhibition at 280.212 g/ha (Corn [18]; Zea mays, pre-emergence, read-out: % plant inhibition) was 0% and the “% plant inhibition” value (Soybean [34]) was 5% and 0%. For the same compound, the inhibition at 280.212 g/ha (Bedstraw Catchweed [20]) was 50% and the inhibition at 280.212 g/ha (Giant Foxtail [21]) was 0%.
